From patent publication US6365549B2, “Methods of blocking an ethylene response in plants using cyclopropene derivatives” (North Carolina State University, priority 1999, dated 2002)

System: Patio variety tomato seedlings
Experiment: Tomato epinasty test, volatile gas treatment
Format: in vivo
Settings: ethylene 10 ppm v/v, scale of 0 to 10, 10 complete protection, 0 no protection
Procedure: The test procedure is designed to determine the ability of an compound according to the present invention to block the epinastic growth response induced by ethylene in tomato plants when the compound is administered either as a volatile gas or as a component of a spray solution. Treatment chambers are of an appropriate size for the test plants and are airtight. Each is fitted with a reusable septum to be used for injection of ethylene. Test plants are Patio variety tomato seedlings planted two plants per three inch square plastic pot. Volatile gas treatment entails placing two pots of Patio var. tomatoes into a polystyrene 4.8 L volume treatment chamber along with one-half (upper or lower section) of a 50×9 mm plastic Petri dish containing a Gelman filter pad. The appropriate amount of experimental compound, dissolved in 1.0 ml acetone, is pipetted onto the filter pad and the chamber immediately sealed. Four hours later ethylene gas equal to 10 ppm v/v final concentration is injected into the sealed chamber. Sixteen hours later the chambers are opened in an exhaust hood, allowed to air and the plants scored visually for the degree of protection against ethylene-induced epinasty conferred by the experimental compound when compared to ethylene treated and untreated controls on a scale of 0 to 10. A rating of 10 means complete protection. A rating of 0 means no protection from the effects of ethylene.

| Compound | Protection against ethylene-induced epinasty, rating (Gas 10 ppm) | Protection against ethylene-induced epinasty, rating (Gas 1000 ppm) | Protection against ethylene-induced epinasty, rating (Gas 500 ppm) | Protection against ethylene-induced epinasty, rating (Gas 750 ppm) |
| --- | --- | --- | --- | --- |
| 1-Pentyloxyethyl-cyclopropene [Compound 15] | 10 | – | – | – |
| CON=C(C)CCCCCCC1=CC1 (single isomer, unassigned) [Compound 47, 8-Cycloprop-1-enyl-octan-2-one O-methyl Oxime] | 9.5 | – | – | – |
| CCCCCCCCC1C=C1 [Compound 2, 3-Octylcyclopropene] | 0 | 10 | – | – |
| COCCCCCCCC1=CC1 [Compound 3, 1-(7-Methoxyheptyl)-cyclopropene] | 9.5 | – | – | – |
| CCCCCC#CCCCCC1=CC1 [Compound 4, 1-(Undec-5-ynl)-cyclopropene] | 10 | – | – | – |
| OCCCCCCCC1=CC1 [Compound 5, 1-(7-Hydroxyheptyl)-cyclopropene] | 0 | 10 | – | – |
| CC(=O)OCCCCCCCC1=CC1 [Compound 6, 1-(7-Acetoxyheptyl)-cyclopropene] | 0 | 10 | – | – |
| O=C(O)CCCCCCC1=CC1 [Compound 7, 7-Cycloprop-1-enyl-heptanoic Acid] | 3 | 8 | – | – |
| CC(C)N.O=C(O)CCCCCCC1=CC1 [Compound 8, 7-Cycloprop-1-enyl-heptanoic Acid Isopropylamine Salt] | 0 | – | 8 | – |
| CCOC(=O)CCCCCCC1=CC1 [Compound 9, 7-Cycloprop-1-enyl-heptanoic Acid Ethyl Ester] | 4 | – | – | – |
| N#CCCCCCCCC1=CC1 [Compound 10, 1-(7-Cyanoheptyl)-cyclopropene] | 2 | 10 | – | – |
| CCN(CC)CCCCCCCC1=CC1 [Compound 11, 1-(7-N,N-Diethylaminoheptyl)-cyclopropene] | 3 | 10 | – | – |
| CC(=O)O.CCN(CC)CCCCCCCC1=CC1 [Compound 12, 1-(7-N,N,-Diethylammoniumheptyl)-cyclopropene Acetate] | 2 | 10 | – | – |
| CC[N+](C)(CC)CCCCCCCC1=CC1.[I-] [Compound 13, 1-(7-N,N,N-Diethylmethylammoniumheptyl)-cyclopropene Iodide] | 6 | – | – | – |
| CCCCCCOCC1=CC1 [Compound 14, 1-Hexyloxymethyl-cyclopropene] | 10 | – | – | – |
| CCCCCC1(CCCCC)C=C1 [Compound 16, 3,3-Dipentyl-cyclopropene] | 0 | 10 | – | – |
| CCC=CCC1=C(CCCCC)C1 [Compound 17, 1-Pent-2-enyl-2-pentyl-cyclopropene] | 0 | 10 | – | – |
| CCC=CCC1=CC1(CCCCC)CCCCC [Compound 18, 1-Pent-2-enyl-3,3-dipentyl-cyclopropene] | 0 | 10 | – | – |
| C=CCCCCCCC1=CC1 [Compound 19, 1-(Oct-7-enyl)-cyclopropene] | 10 | – | – | – |
| CC(C)(O)CCC1=CC1 [Compound 20, 4-(1-Cyclopropenyl)-2-methylbutan-2-ol] | 0 | 8 | – | – |
| CCCCCCCCC1=C(CCCCCCCC(=O)OC)C1 [Compound 21, Methyl Sterculate] | 5 | 9 | – | – |
| CCCCCCCCCC1=CC1 [Compound 24] | 9.5 | – | – | – |

| Compound | Protection against ethylene-induced epinasty, rating (Gas 10 ppm) | Protection against ethylene-induced epinasty, rating (Gas 1000 ppm) | Protection against ethylene-induced epinasty, rating (Gas 500 ppm) | Protection against ethylene-induced epinasty, rating (Gas 750 ppm) |
| --- | --- | --- | --- | --- |
| CCCCCCCCCCC1=CC1 [Compound 25] | 9 | – | – | – |
| CCCCCCCC1=CC1 [Compound 26] | 10 | – | – | – |
| CCCCCCCCCCCC1=CC1 [Compound 27] | 10 | – | – | – |
| CCCCC(CC)CCC1=CC1 (stereo not drawn) [Compound 28] | 9 | – | – | – |
| CCCCCCCCCCCCCC1=CC1 [Compound 29] | 3.5 | 10 | – | – |
| COCCOCCOCC1=CC1 [Compound 30] | 3 | 10 | – | – |
| CCCCCC1=CC1 [Compound 31] | 10 | – | – | – |
| CCCCCC(C)CC1=CC1 (stereo not drawn) [Compound 32] | 9.5 | – | – | – |
| CCC(=O)OCCC1=CC1 [Compound 33] | 0 | 10 | – | – |
| CC(C)CCCCCC1=CC1 [Compound 34] | 10 | – | – | – |
| CC(CCC1=CC1)CC(C)(C)C (stereo not drawn) [Compound 35] | 10 | – | – | – |
| FC(F)(F)CCCCC1=CC1 [Compound 37] | 10 | – | – | – |
| CCCCCCCCCCCCCCCC1=CC1 [Compound 38] | 4.5 | 10 | – | – |
| CCCCCCCCCCCCC1=CC1 [Compound 40] | 4 | 10 | – | – |
| CCCCN(CCCC)CC1=CC1 [Compound 41] | 3 | 10 | – | – |
| CCCCCCCCCCCCCCC1=CC1 [Compound 42] | 2 | 10 | – | – |
| CC(C)(C)CCC1=CC1 [Compound 43] | 10 | – | – | – |
| CCCCCCC1=CC1CCCCCC (stereo not drawn) [Compound 44] | 0 | 10 | – | – |
| CCCCCC1=C(CCCCC)C1 [Compound 45] | 0 | 10 | – | – |
| CC(=O)CCCCCCC1=CC1 [Compound 46, 8-Cycloprop-1-enyl-octan-2-one] | 3 | 9 | – | – |
| CCN(CC)C(=O)CCCCCCC1=CC1 [Compound 48, 7-Cycloprop-1-enyl-heptanoic Acid Diethylamide] | 0 | 7 | – | – |
| Hex-5-yne 2-octylcycloprop-2-ene-1-carboxylate [Compound 22] | 0 | – | – | 9 |
